Our source for the IC50 values is patent US9334264B2, “NAMPT inhibitors” (AbbVie Inc., priority 2012, dated 2016).

Usually IC50 stands for the concentration that inhibits the measured activity by half.

Assay [1] addresses NAMPT (human, recombinant, C-terminally His-tagged) (Homo sapiens, UniProt P43490). In words: Time-Resolved Fluorescence Resonance Energy Transfer (TR-FRET) Binding Assay of NAMPT. To be noted: absence of substrates; 6.8 nM NAMPT, 200 nM probe, equilibrated 3 hours. In short, it runs like this: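 Displacement of 200 nM Oregon Green-labelled nicotinamide-competitive probe from 6.8 nM His-tagged NAMPT, detected with 1 nM Tb-anti-His; HEPES pH 7.5, 2% DMSO, 3 h room temperature. Em520/Em495 ratios normalized and fit four-parameter logistic for IC50.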
(In general: TR-FRET usually uses a lanthanide donor and a delayed reading to cut background.)

The target in assay [2] is NAMPT (Homo sapiens, UniProt P43490). Briefly: Time-Resolved Fluorescence Resonance Energy Transfer (TR-FRET) Binding Assay of NAMPT with PRPP. To be noted: 200 μM PRPP and 2.5 mM ATP; 2 nM NAMPT, 2 nM probe, equilibrated 16 hours. The procedure, abridged:
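Binding was measured by TR-FRET with 2 nM NAMPT, 2 nM probe and 1 nM Tb-anti-His antibody in the presence of 200 μM PRPP and 2.5 mM ATP, with 2% DMSO. Equilibration lasted 16 h before reading, allowing possible enzymatic modification of compounds.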

Structures are written as SMILES.

Sequence of NAMPT (human, recombinant, C-terminally His-tagged) (P43490 whole entry): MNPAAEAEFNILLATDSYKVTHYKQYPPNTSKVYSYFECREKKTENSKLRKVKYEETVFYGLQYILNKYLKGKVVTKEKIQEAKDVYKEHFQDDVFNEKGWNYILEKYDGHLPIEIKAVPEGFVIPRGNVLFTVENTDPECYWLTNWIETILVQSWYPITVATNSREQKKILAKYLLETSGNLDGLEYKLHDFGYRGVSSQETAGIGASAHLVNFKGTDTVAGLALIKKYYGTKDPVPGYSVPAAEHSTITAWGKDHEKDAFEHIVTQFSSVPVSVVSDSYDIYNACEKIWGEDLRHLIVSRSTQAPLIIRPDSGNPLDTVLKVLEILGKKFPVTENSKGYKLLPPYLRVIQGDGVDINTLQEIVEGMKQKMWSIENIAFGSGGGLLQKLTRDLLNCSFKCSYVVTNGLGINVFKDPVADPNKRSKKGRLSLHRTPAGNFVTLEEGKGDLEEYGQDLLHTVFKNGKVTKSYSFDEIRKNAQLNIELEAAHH
Sequence of NAMPT (P43490 whole entry): as above

As to `COCCC(=O)N(Cc1cccnc1)c1ncc(C(=O)NCCCn2ccnc2)s1` [Example 122, N-[3-(1H-imidazol-1-yl)propyl]-2-[(3-methoxypropanoyl)(pyridin-3-ylmethyl)amino]-1,3-thiazole-5-carboxamide], the half-maximal inhibitory concentration (IC50) in assay [1] is greater than 10 µM; in assay [2], 4.31 nM.

Take `CC(C)OCCNC(=O)N(Cc1ccc(C#N)cc1)c1ncc(C(=O)NCCCn2ccnc2)s1` [Example 123, 2-[(4-cyanobenzyl){[2-(propan-2-yloxy)ethyl]carbamoyl}amino]-N-[3-(1H-imidazol-1-yl)propyl]-1,3-thiazole-5-carboxamide]: the values for the 50% inhibitory concentration (IC50) in assay [1] and in assay [2] were 3.82 µM and 0.631 nM, respectively.

Turning to `COC(C)CNC(=O)N(Cc1ccc(C#N)cc1)c1ncc(C(=O)NCCCn2ccnc2)s1` (stereo not shown) [Example 124, 2-{(4-cyanobenzyl)[(2-methoxypropyl)carbamoyl]amino}-N-[3-(1H-imidazol-1-yl)propyl]-1,3-thiazole-5-carboxamide], the IC50 in assay [1] worked out at 3.52 µM; in assay [2], 0.624 nM.

Consider `N#Cc1ccc(CN(C(=O)NCCOCCO)c2ncc(C(=O)NCCCn3ccnc3)s2)cc1` [Example 125, 2-[(4-cyanobenzyl){[2-(2-hydroxyethoxy)ethyl]carbamoyl}amino]-N-[3-(1H-imidazol-1-yl)propyl]-1,3-thiazole-5-carboxamide], for which the half-inhibitory concentration (IC50) in assay [1] is greater than 10 µM; in assay [2], 0.712 nM.

Regarding `CC(C)OCCCNC(=O)N(Cc1ccc(C#N)cc1)c1ncc(C(=O)NCCCn2ccnc2)s1` [Example 126, 2-[(4-cyanobenzyl){[3-(propan-2-yloxy)propyl]carbamoyl}amino]-N-[3-(1H-imidazol-1-yl)propyl]-1,3-thiazole-5-carboxamide], the values for the IC50 in assay [1] and in assay [2] were 4.18 µM and 1.3 nM, respectively.

With `CC(C)(CO)CNC(=O)N(Cc1ccc(C#N)cc1)c1ncc(C(=O)NCCCn2ccnc2)s1` [Example 127, 2-{(4-cyanobenzyl)[(3-hydroxy-2,2-dimethylpropyl)carbamoyl]amino}-N-[3-(1H-imidazol-1-yl)propyl]-1,3-thiazole-5-carboxamide], the IC50 stood at 3.18 µM in assay [1] and 0.533 nM in assay [2].

As to `CC(O)CNC(=O)N(Cc1ccc(C#N)cc1)c1ncc(C(=O)NCCCn2ccnc2)s1` (stereo not shown) [Example 128, 2-{(4-cyanobenzyl)[(2-hydroxypropyl)carbamoyl]amino}-N-[3-(1H-imidazol-1-yl)propyl]-1,3-thiazole-5-carboxamide], the figures for the IC50 in assay [1] and in assay [2] were greater than 10 µM and 0.727 nM, respectively.

On to `CC(CO)NC(=O)N(Cc1ccc(C#N)cc1)c1ncc(C(=O)NCCCn2ccnc2)s1` (stereo not shown) [Example 129, 2-{(4-cyanobenzyl)[(1-hydroxypropan-2-yl)carbamoyl]amino}-N-[3-(1H-imidazol-1-yl)propyl]-1,3-thiazole-5-carboxamide], for which the IC50 in assay [1] is greater than 10 µM; in assay [2] it was 1.16 nM.

`N#Cc1ccc(CN(C(=O)NCCCO)c2ncc(C(=O)NCCCn3ccnc3)s2)cc1` [Example 130, 2-{(4-cyanobenzyl)[(3-hydroxypropyl)carbamoyl]amino}-N-[3-(1H-imidazol-1-yl)propyl]-1,3-thiazole-5-carboxamide]: the figures for the IC50 in assay [1] and in assay [2] were greater than 10 µM and 1.11 nM, respectively.

For the compound `C=C[C@@H](CO)NC(=O)N(Cc1ccc(C#N)cc1)c1ncc(C(=O)NCCCn2ccnc2)s1` [Example 131, 2-[(4-cyanobenzyl){[(2S)-1-hydroxybut-3-en-2-yl]carbamoyl}amino]-N-[3-(1H-imidazol-1-yl)propyl]-1,3-thiazole-5-carboxamide], the half-inhibitory concentration (IC50) in assay [1] was 4.78 µM; in assay [2] it was 0.743 nM.

Take `N#Cc1ccc(CN(C(=O)NCCCCO)c2ncc(C(=O)NCCCn3ccnc3)s2)cc1` [Example 132, 2-{(4-cyanobenzyl)[(4-hydroxybutyl)carbamoyl]amino}-N-[3-(1H-imidazol-1-yl)propyl]-1,3-thiazole-5-carboxamide]: the concentration for half-maximal inhibition (IC50) in assay [1] amounted to 4.85 µM; in assay [2], 1.02 nM.
